Laboratory results as given in US10000511B2, “Small molecules for the modulation of MCL-1 and methods of modulating cell death, cell division, cell differentiation and methods of treating disorders” (priority 2010, dated 2018).
Read-outs that look alike come from different tables or passages of the source.

How the values were obtained:
MCL-1ΔNΔC [1] = test: Competitive fluorescence polarization binding screen, FITC-MCL-1 SAHB/MCL-1ΔNΔC; details: selectivity for MCL-1ΔNΔC over BCL-XLΔC (BCL-XL % Bound minus MCL-1 % Bound)
BCL-XLΔC = BCL-XLΔC (Homo sapiens, UniProt Q07817); test: Competitive fluorescence polarization binding screen, FITC-BAD BH3/BCL-XLΔC; details: FITC-BAD BH3/BCL-XLΔC interaction
MCL-1ΔNΔC [2] = target: T1, MCL-1ΔNΔC (Homo sapiens, UniProt Q07820); test: Competitive fluorescence polarization binding screen, FITC-MCL-1 SAHB/MCL-1ΔNΔC; set-up: the C-terminal alpha-helix was deleted from each of these constructs to facilitate protein expression and purification; an additional N-terminal deletion of MCL-1 was performed; GST (N, cleaved yes); made in house; details: FITC-MCL-1 SAHB/MCL-1ΔNΔC interaction
MCL-1ΔNΔC [3] = target: T1, MCL-1ΔNΔC; details: pre-incubation, dilution, re-concentration, FITC-BID BH3 FP
Description: A small sample was taken as a pre-dilution control. Compound-treated protein and unmodified protein were then diluted to a volume of 20 mL, and subsequently re-concentrated to 500 mL using 10K centrifugal filter units (Amicon). FP binding analysis was performed as described above by adding serial dilutions of compound-modified MCL-1 and unmodified MCL-1, both before and after dilution, followed by FITC-BID BH3 (15 nM) to a 96-well black flat bottom plate (Costar). FP measurements and analyses are then performed as described above.
Briefly, MCL-1ΔNΔC was pre-incubated with the small molecule inhibitors prior to dilution with buffer. The solution was concentrated to its original volume and fluorescence polarization was performed. Compounds that bind covalently will remain bound to the protein, whereas compounds that bind reversibly will be exchanged upon dilution.

Sequence of BCL-XLΔC (Q07817 1-212 limits assumed, stated change not applied): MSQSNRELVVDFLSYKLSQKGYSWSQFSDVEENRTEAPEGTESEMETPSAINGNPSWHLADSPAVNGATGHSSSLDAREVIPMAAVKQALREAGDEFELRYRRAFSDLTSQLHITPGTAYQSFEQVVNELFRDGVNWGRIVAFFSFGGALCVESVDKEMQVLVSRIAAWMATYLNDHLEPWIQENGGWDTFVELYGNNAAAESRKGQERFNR
T1 sequence (Q07820 172-320 limits assumed, stated change not applied): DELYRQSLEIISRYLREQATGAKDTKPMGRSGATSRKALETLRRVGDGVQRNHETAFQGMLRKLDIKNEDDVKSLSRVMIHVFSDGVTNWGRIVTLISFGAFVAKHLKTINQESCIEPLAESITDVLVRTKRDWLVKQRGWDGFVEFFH

SMILES	Spec Values (MCL-1ΔNΔC [1])	other results
O=c1c(O)c(-c2ccc(O)c(O)c2)oc2cc(O)cc(O)c12	88.65	
CCN(CC)c1cc(C)c2cc(NC(=O)/C=C/c3ccco3)ccc2n1		BCL-XL % Bound (BCL-XLΔC): 79.88%; MCL-1% Bound (MCL-1ΔNΔC [2]): 11.73%
O=C(/C=C/c1ccco1)NC(=S)Nc1ccccc1C(F)(F)F	52.25	
O=C(/C=C/c1ccc(Br)o1)OCC(=O)c1c[nH]c2ccccc12	52.14	BCL-XL % Bound (BCL-XLΔC): 105.6%
Cc1cc(NC(=O)/C=C/c2ccco2)n(-c2nc3ccccc3n2Cc2cccc(Oc3ccccc3)c2)n1	48.1	
COc1ccc(-c2nc3scc(CCNC(=O)/C=C/c4ccco4)n3n2)cc1	46.24	
O=C(CCN1C(=O)/C(=C\C=C\c2ccco2)SC1=S)Nc1ccc(C(=O)O)c(O)c1	54.54	
Cc1ccc(C)n1-c1cc(Cl)ccc1C(=O)O	79.84	
Oc1cccnc1NC(c1ccc(F)cc1)c1ccc2cccnc2c1O (stereo not shown)	71.24	
CC1CCN(C2=NN3C(=N)/C(=C\c4ccc(SCc5ccco5)o4)C(=O)N=C3S2)CC1	70.38	
CCSC1=C(C#N)C(=O)NC(c2ccc(O)cc2)S1 (stereo not shown)		BCL-XL % Bound (BCL-XLΔC): 84.82%
Cc1ccc2c(c1C)NC(C(=O)O)C1CC=CC21 (stereo not shown)		MCL-1% Bound (MCL-1ΔNΔC [2]): 14.5%
C/C(=N\OCc1ccc(C(=O)N2CCCCC2)o1)c1cccc(C(F)(F)F)c1	55.34	
CN1CCN(C(c2ccccn2)c2c(-c3ccccc3)n(O)c3ccccc23)CC1 (stereo not shown)	49.28	
CCSC1=C(C#N)C(=O)NC(c2ccc(N(C)C)cc2)S1 (stereo not shown)	49.2!	
Cc1c(Cl)cccc1N1C(=O)CC(N2CCCc3ccccc32)C1=O (stereo not shown)	48.92	
COc1cc(C(c2nnnn2C2CCCCC2)N2CCc3ccccc3C2)ccc1O (stereo not shown)	48.33	
COc1ccc(/C=c2\s/c(=C\C(=O)c3ccco3)[nH]c2=O)cc1O		BCL-XL % Bound (BCL-XLΔC): 263.7%
Cc1cc2c(C(C)C)c(O)c(O)c(C=O)c2c(O)c1-c1c(C)cc2c(C(C)C)c(O)c(O)c(C=O)c2c1O [Gossypol]		mode of binding to MCL-1ΔNΔC (reversible/non-covalent vs covalent) (MCL-1ΔNΔC [3]): bound reversibly; mode of binding to MCL-1ΔNΔC (reversible/non-covalent vs covalent) (MCL-1ΔNΔC [3]; listed as 1570G15): engages MCL-1 through non-covalent interactions
Cc1ccc(/C=C2\C(=O)Nc3ccc(Br)cc32)o1 [drawing 54]	58.85	MCL-1% Bound (MCL-1ΔNΔC [2]): 18.74%
Cc1ccc(/C=C2\C(=O)Nc3ccc(Br)cc32)o1 [drawing 279]	58.85	
